In US20150174283A1, “Smart, Self-Decontaminating Polymer and Method for Inhibiting The Growth Of A Bacteria and Fungus” (priority 2012, published 2015):

Columns and labels:
Staphylococcus aureus = assay: S. aureus growth on TSA plates with or without hydroxylamine and polymer foams; format: cell-based; conditions: TSA plates containing 500 uM HA, no polymer, 18 hours, 37 C
Description: The microorganism, Staphylococcus aureus (S. aureus/Staph), was utilized. Staphylococcus aureus is an important bacterium to study and ultimately have the ability to inhibit, as Staphlococcus can cause a number of diseases as a result of infection. The strain Methicillin-resistant Staphylococcus aureus or MRSA is a multi-drug resistant bacterium, making any MRSA infection difficult to treat with standard antibiotics and is thus a more dangerous infection; the number of drug-resistant MRSA cases has increase by 90% over the past decade. MRSA is the most significant infection encountered in hospital settings, costing US hospitals $3.2 to 4.2 billion annually to treat infected patients. Patients with MRSA infections often require longer hospital stays and more time spent in intensive care units. […]

host cells = conditions: cited from earlier work
[1] = chlorination of thionin by enzymes in solution (bleaching followed at 598 nm); format: biochemical; conditions: substrate glucose
Description: The chlorinating activity of composite polymers was measured by following the chlorination of a colored substrate (thionin). The thionin is a blue-violet dye that absorbs at 598 nm and undergoes bleaching (to colorless) upon chlorination. A battery of tests were carried out in 100 mM phosphate citrate buffer at pH 4.0. […] The reaction mixture comprised 1.45 mL of the thionin/NaCl solution, 30 μL of the substrate solution (glucose or peroxide), and 25 μL of the enzyme solution (total). Buffer was used to replace the enzyme or substrate in control reactions.

With NO [HA, hydroxylamine] the S. aureus growth (Staphylococcus aureus) was “does not inhibit the growth” and the S. aureus growth (Staphylococcus aureus; listed as Hydroxylamine) was “not effected”.

For OO [hydrogen peroxide, Hydrogen peroxide], the “concentration toxic to the host cells” value (host cells) is listed as over 3%.

With glucose oxidase the “absorbance of thionin at 598 nm, after two minutes” value ([1]; 20 mM NaCl, pH 4.0) was 0.670 and the “color change of thionin” value ([1]; thionin/NaCl solution, two minutes) was “no color change was observed”.
